Assay results: article PMC9256790 (Molecular cancer therapeutics, 2022)

Columns and labels:
[1] = test system: orthotopic MDA-MB-231 xenografts; experiment: Orthotopic MDA-MB-231 xenograft in comparison with CA4P; type: in vivo, mice
[2] = test system: MDA-MB-231 cells; experiment: Wound healing; type: cell-based, Human; conditions: 4 nM, 24 h
[3] = test system: cHCI-2; experiment: Cell proliferation; type: cell-based, Human; conditions: for proliferation of cHCI-2 cells: 10 nM, 5 days of treatment
[4] = test system: MDA-MB-231 cells; experiment: Immunofluorescence staining of microtubules; type: cell-based, Human; conditions: 24 h
[5] = test system: MDA-MB-231 or MDA-MB-468 cells; experiment: Colony formation assay; type: cell-based, Human; conditions: 1 to 4 nM; both TNBC cell lines
[6] = test system: cHCI-10; experiment: Cell proliferation; type: cell-based, Human; conditions: for proliferation of cHCI-10 cells: 10 nM, 5 days of treatment
[7] = test system: MDA-MB-231 and MDA-MB-468 cells; experiment: Cell cycle analysis; type: cell-based, Human; conditions: 10 nM; 24 h
[8] = test system: MDA-MB-468; experiment: Cell proliferation; type: cell-based; conditions: Homo sapiens, MDA-MB-468, read-out: Mean IC50 ± SEM
[9] = test system: MDA-MB-231/TxR; experiment: Cell proliferation; type: cell-based; conditions: Homo sapiens, read-out: Mean IC50 ± SEM
[10] = test system: Mia PaCa-2; experiment: Cell proliferation; type: cell-based; conditions: Homo sapiens, MIA PaCa-2, read-out: Mean IC50 ± SEM
[11] = test system: Mia PaCa-2/ColxR; experiment: Cell proliferation; type: cell-based; conditions: Homo sapiens, MIA PaCa-2, read-out: Mean IC50 ± SEM
[12] = test system: MDA-MB-468/TxR; experiment: Cell proliferation; type: cell-based; conditions: Homo sapiens, MDA-MB-468, read-out: Mean IC50 ± SEM
[13] = Homo sapiens, 120 h, read-out: Mean IC50 ± SEM

IC50 [8]	IC50 [9]	IC50 [10]	IC50 [11]	IC50 [12]	SMILES	average tumor volume vs vehicle ([1]; 28 mg/kg (equivalent to 20 mg/kg CA4) IP 5 times/week)	body weight ([1]; 28 mg/kg IP 5 times/week)	wound closure [2]	proliferation of cHCI-2 cells [3]	microtubule structure ([4]; 2.5 nM)	microtubule structure ([4]; 5 nM, interphase)	colony formation [5]	proliferation of cHCI-10 cells [6]	cell cycle distribution [7]	IC50 [3, 13]	microtubule structure ([4]; 2.5 nM or 5 nM, interphase and mitotic phase)	IC50 [6, 13]
					COc1ccc(/C=C\c2cc(OC)c(OC)c(OC)c2)cc1OP(=O)(O)O [CA4P, fosbretabulin]	significantly reduced	no significant loss in body weight										
					COc1cc2c(c(OC)c1OC)-c1ccc(OC)c(=O)cc1[C@@H](NC(C)=O)CC2 [Colchicine]			closed similar to untreated control cells	limited effects	similarly organized and intact microtubule structures as untreated cells	disseminated and depolymerized microtubule arrangement	no effect	limited effects	little effect on cell cycle progression			
2 ± 0.2 nM	112 ± 37.8 nM	5.5 ± 0.6 nM	10.6 ± 1.1 nM	152 ± 23.8 nM	CC(=O)O[C@H]1C(=O)[C@@]2(C)[C@H]([C@H](OC(=O)c3ccccc3)[C@]3(O)C[C@H](OC(=O)[C@H](O)[C@@H](NC(=O)c4ccccc4)c4ccccc4)C(C)=C1C3(C)C)[C@]1(OC(C)=O)CO[C@@H]1C[C@@H]2O [Paclitaxel]				reduced the proliferation			robustly inhibited colony formation	no activity	arrested the cells into the M phase and the subG1 phase	12.7 ± 5.8 nM	condensed microtubules	43.6 ± 8.2 nM
